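1) Cells in 96-well plates. 2) Compound, 48 h, 5 concentrations. 3) Linear interpolation between surrounding doses. 4) Unreached endpoint = highest concentration. GI50 marks 50% less growth.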 The source made the active and inactive calls. Cut-off read from the data, not from the text of the source: active = GI50 up to about 1.1 µM and inactive = higher.
Experiments:
Assay in all cases: NCI tumour cell line growth inhibition, 48 h
DU-145 = test system: DU-145
SW-620 = test system: SW-620
SK-OV-3 = test system: SK-OV-3
SNB-75 = test system: SNB-75
UO-31 = test system: UO-31
NCI-H226 = test system: NCI-H226
HCT-15 = test system: HCT-15
MOLT-4 = test system: MOLT-4
HOP-62 = test system: HOP-62
ACHN = test system: ACHN
SK-MEL-2 = test system: SK-MEL-2
OVCAR-4 = test system: OVCAR-4
MDA-MB-435 = test system: MDA-MB-435
MDA-N = test system: MDA-N
SF-268 = test system: SF-268
PC-3 = test system: PC-3
U-251 = test system: U-251
RXF 393 = test system: RXF 393
M14 = test system: M14
HCC 2998 = test system: HCC 2998
SF-539 = test system: SF-539
HT-29 = test system: HT-29
CAKI-1 = test system: CAKI-1
SR = test system: SR
SF-295 = test system: SF-295
T47D = test system: T47D
HCT-116 = test system: HCT-116
TK-10 = test system: TK-10
IGROV-1 = test system: IGROV-1
RPMI-8226 = test system: RPMI-8226
A549 = test system: A549
OVCAR-8 = test system: OVCAR-8
OVCAR-5 = test system: OVCAR-5
SK-MEL-28 = test system: SK-MEL-28
Hs-578T = test system: Hs-578T
786-0 = test system: 786-0
CCRF-CEM = test system: CCRF-CEM
LOX IMVI = test system: LOX IMVI
BT-549 = test system: BT-549
OVCAR-3 = test system: OVCAR-3
NCI/ADR-RES = test system: NCI/ADR-RES
HL-60 = test system: HL-60
HOP-92 = test system: HOP-92
MCF7 = test system: MCF7
EKVX = test system: EKVX
NCI-H522 = test system: NCI-H522
SNB-19 = test system: SNB-19
Malme-3M = test system: Malme-3M
NCI-H460 = test system: NCI-H460
SN12C = test system: SN12C
COLO 205 = test system: COLO 205
UACC-62 = test system: UACC-62
SK-MEL-5 = test system: SK-MEL-5
K562 = test system: K562
MDA-MB-231 = test system: MDA-MB-231
A498 = test system: A498
UACC-257 = test system: UACC-257
NCI-H23 = test system: NCI-H23
KM12 = test system: KM12

SMILES: O=c1[nH]nc(Cc2ccc(Cl)cc2)n1/N=C/c1ccc([N+](=O)[O-])o1
- GI50 (DU-145): 3.64 µM (inactive)
- GI50 (SW-620): 2.92 µM (inactive)
- GI50 (SK-OV-3): 5.22 µM (inactive)
- GI50 (SNB-75): 7.13 µM (inactive)
- GI50 (UO-31): 2.16 µM (inactive)
- GI50 (NCI-H226): 9.18 µM (inactive)
- GI50 (HCT-15): 2.21 µM
- GI50 (MOLT-4): 1.55 µM (inactive)
- GI50 (HOP-62): 2.77 µM (inactive)
- GI50 (ACHN): 2.12 µM (inactive)
- GI50 (SK-MEL-2): 3.38 µM (inactive)
- GI50 (OVCAR-4): 2.73 µM (inactive)
- GI50 (MDA-MB-435): 2.4 µM (inactive)
- GI50 (MDA-N): 1.65 µM (inactive)
- GI50 (SF-268): 2.25 µM (inactive)
- GI50 (PC-3): 3.08 µM (inactive)
- GI50 (U-251): 4.12 µM (inactive)
- GI50 (RXF 393): 1.56 µM (inactive)
- GI50 (M14): 2.17 µM (inactive)
- GI50 (HCC 2998): 2.13 µM (inactive)
- GI50 (SF-539): 2.21 µM (inactive)
- GI50 (HT-29): 2.21 µM (inactive)
- GI50 (CAKI-1): 3.24 µM (inactive)
- GI50 (SR): 2.17 µM (inactive)
- GI50 (SF-295): 2.77 µM (inactive)
- GI50 (T47D): 21.4 µM (inactive)
- GI50 (HCT-116): 1.29 µM (inactive)
- GI50 (TK-10): 4.27 µM (inactive)
- GI50 (IGROV-1): 2.05 µM (inactive)
- GI50 (RPMI-8226): 1.12 µM (active)
- GI50 (A549): 3.42 µM (inactive)
- GI50 (OVCAR-8): 1.99 µM (inactive)
- GI50 (OVCAR-5): 6.85 µM (inactive)
- GI50 (SK-MEL-28): 3.03 µM (inactive)
- GI50 (Hs-578T): 2.25 µM (inactive)
- GI50 (786-0): 2.23 µM (inactive)
- GI50 (CCRF-CEM): 1.76 µM (inactive)
- GI50 (LOX IMVI): 1.2 µM (inactive)
- GI50 (BT-549): 1.87 µM (inactive)
- GI50 (OVCAR-3): 0.53 µM (active)
- GI50 (NCI/ADR-RES): 3.16 µM (inactive)
- GI50 (HL-60): 1.87 µM (inactive)
- GI50 (HOP-92): 4.57 µM (inactive)
- GI50 (MCF7): 1.75 µM (inactive)
- GI50 (EKVX): 4.63 µM (inactive)
- GI50 (NCI-H522): 1 µM (active)
- GI50 (SNB-19): 3.98 µM (inactive)
- GI50 (Malme-3M): 1.46 µM (inactive)
- GI50 (NCI-H460): 3.4 µM (inactive)
- GI50 (SN12C): 3.78 µM (inactive)
- GI50 (COLO 205): 1.84 µM (inactive)
- GI50 (UACC-62): 2.87 µM (inactive)
- GI50 (SK-MEL-5): 2.61 µM (inactive)
- GI50 (K562): 2.58 µM (inactive)
- GI50 (MDA-MB-231): 3.38 µM (inactive)
- GI50 (A498): 5.7 µM (inactive)
- GI50 (UACC-257): 2.77 µM (inactive)
- GI50 (NCI-H23): 3.34 µM (inactive)
- GI50 (KM12): 2.03 µM (inactive)

SMILES: CC1=Nc2ccccc2/C1=C\c1c(C)[nH]c2ccccc12
- GI50 (DU-145): 15.8 µM (inactive)
- GI50 (SW-620): 11 µM (inactive)
- GI50 (SK-OV-3): 15.6 µM (inactive)
- GI50 (SNB-75): 18.7 µM (inactive)
- GI50 (UO-31): 13.6 µM (inactive)
- GI50 (NCI-H226): 15.2 µM (inactive)
- GI50 (HCT-15): 12.9 µM
- GI50 (MOLT-4): 3.4 µM (inactive)
- GI50 (HOP-62): 23.2 µM (inactive)
- GI50 (ACHN): 15.7 µM (inactive)
- GI50 (SK-MEL-2): 17.8 µM (inactive)
- GI50 (OVCAR-4): 12.4 µM (inactive)
- GI50 (MDA-MB-435): 6.59 µM (inactive)
- GI50 (MDA-N): 6.75 µM (inactive)
- GI50 (SF-268): 11.2 µM (inactive)
- GI50 (PC-3): 13.6 µM (inactive)
- GI50 (U-251): 15.9 µM (inactive)
- GI50 (RXF 393): 10.6 µM (inactive)
- GI50 (M14): 23.2 µM (inactive)
- GI50 (HCC 2998): 15.5 µM (inactive)
- GI50 (SF-539): 24.5 µM (inactive)
- GI50 (HT-29): 12.8 µM (inactive)
- GI50 (CAKI-1): 13.8 µM (inactive)
- GI50 (SR): 5.9 µM (inactive)
- GI50 (SF-295): 18.6 µM (inactive)
- GI50 (T47D): 9.53 µM (inactive)
- GI50 (HCT-116): 11.4 µM (inactive)
- GI50 (TK-10): 16.3 µM (inactive)
- GI50 (IGROV-1): 12.5 µM (inactive)
- GI50 (RPMI-8226): 16.3 µM (inactive)
- GI50 (A549): 23.1 µM (inactive)
- GI50 (OVCAR-8): 12.4 µM (inactive)
- GI50 (OVCAR-5): 23.4 µM (inactive)
- GI50 (SK-MEL-28): 16.6 µM (inactive)
- GI50 (Hs-578T): 8.63 µM (inactive)
- GI50 (786-0): 12 µM (inactive)
- GI50 (CCRF-CEM): 5.04 µM (inactive)
- GI50 (LOX IMVI): 13.1 µM (inactive)
- GI50 (BT-549): 3.55 µM (inactive)
- GI50 (OVCAR-3): 12.6 µM (inactive)
- GI50 (NCI/ADR-RES): 16.2 µM (inactive)
- GI50 (HL-60): 5.85 µM (inactive)
- GI50 (HOP-92): 3.73 µM (inactive)
- GI50 (MCF7): 4.49 µM (inactive)
- GI50 (EKVX): 12.2 µM (inactive)
- GI50 (NCI-H522): 10 µM (inactive)
- GI50 (SNB-19): 16.6 µM (inactive)
- GI50 (Malme-3M): 14.1 µM (inactive)
- GI50 (NCI-H460): 17.8 µM (inactive)
- GI50 (SN12C): 21.4 µM (inactive)
- GI50 (COLO 205): 19.1 µM (inactive)
- GI50 (UACC-62): 5.26 µM (inactive)
- GI50 (SK-MEL-5): 14.1 µM (inactive)
- GI50 (K562): 7.21 µM (inactive)
- GI50 (MDA-MB-231): 13.4 µM (inactive)
- GI50 (A498): 17.5 µM (inactive)
- GI50 (UACC-257): 13.2 µM (inactive)
- GI50 (NCI-H23): 13 µM (inactive)
- GI50 (KM12): 13.2 µM (inactive)

SMILES: COc1cccc(Nc2nc(N)nc(N)c2N=O)c1
- GI50 (DU-145): 13.2 µM (inactive)
- GI50 (SW-620): 31.3 µM (inactive)
- GI50 (SK-OV-3): 29.2 µM (inactive)
- GI50 (SNB-75): 10.8 µM (inactive)
- GI50 (UO-31): 9.4 µM (inactive)
- GI50 (NCI-H226): 22.5 µM (inactive)
- GI50 (HCT-15): 22 µM
- GI50 (MOLT-4): 7.24 µM (inactive)
- GI50 (HOP-62): 28.8 µM (inactive)
- GI50 (ACHN): 17.3 µM (inactive)
- GI50 (SK-MEL-2): 31 µM (inactive)
- GI50 (OVCAR-4): 31.8 µM (inactive)
- GI50 (MDA-MB-435): 16.9 µM (inactive)
- GI50 (MDA-N): 30.8 µM (inactive)
- GI50 (SF-268): 14.7 µM (inactive)
- GI50 (PC-3): 10.2 µM (inactive)
- GI50 (U-251): 31.8 µM (inactive)
- GI50 (RXF 393): 28.6 µM (inactive)
- GI50 (M14): 30.8 µM (inactive)
- GI50 (HCC 2998): 17.4 µM (inactive)
- GI50 (SF-539): 15.3 µM (inactive)
- GI50 (HT-29): 21.8 µM (inactive)
- GI50 (CAKI-1): 11.3 µM (inactive)
- GI50 (SR): 18.5 µM (inactive)
- GI50 (SF-295): 27 µM (inactive)
- GI50 (T47D): 2.12 µM (inactive)
- GI50 (HCT-116): 18.4 µM (inactive)
- GI50 (TK-10): 19.8 µM (inactive)
- GI50 (IGROV-1): 2.38 µM (inactive)
- GI50 (RPMI-8226): 16.9 µM (inactive)
- GI50 (A549): 31 µM (inactive)
- GI50 (OVCAR-8): 16.1 µM (inactive)
- GI50 (OVCAR-5): 37.8 µM (inactive)
- GI50 (SK-MEL-28): 22 µM (inactive)
- GI50 (Hs-578T): 14.5 µM (inactive)
- GI50 (786-0): 19 µM (inactive)
- GI50 (CCRF-CEM): 23.2 µM (inactive)
- GI50 (LOX IMVI): 15.1 µM (inactive)
- GI50 (BT-549): 28 µM (inactive)
- GI50 (OVCAR-3): 15.6 µM (inactive)
- GI50 (NCI/ADR-RES): 17.1 µM (inactive)
- GI50 (HL-60): 19.1 µM (inactive)
- GI50 (HOP-92): 7.14 µM (inactive)
- GI50 (MCF7): 3.8 µM (inactive)
- GI50 (EKVX): 19.4 µM (inactive)
- GI50 (NCI-H522): 8.65 µM (inactive)
- GI50 (SNB-19): 38.6 µM (inactive)
- GI50 (Malme-3M): 29.2 µM (inactive)
- GI50 (NCI-H460): 13.6 µM (inactive)
- GI50 (SN12C): 17.8 µM (inactive)
- GI50 (COLO 205): 24.4 µM (inactive)
- GI50 (UACC-62): 15.5 µM (inactive)
- GI50 (SK-MEL-5): 18.7 µM (inactive)
- GI50 (K562): 31.3 µM (inactive)
- GI50 (MDA-MB-231): 28.5 µM (inactive)
- GI50 (A498): 21.7 µM (inactive)
- GI50 (UACC-257): 21.3 µM (inactive)
- GI50 (NCI-H23): 15.3 µM (inactive)
- GI50 (KM12): 29.1 µM (inactive)
